Among the data in US20150126475A1, “PESTICIDAL COMPOSITION AND METHOD FOR CONTROLLING PESTS” (priority 2012, published 2015) are Root knot index, Damage degree and Control value values, retold here.

What all share (type): in vivo
Assay [1] deals with southern root-knot nematode (Meloidogyne incognita). The experiment in a line: Root knot index on tomato in pots with soil contaminated with southern root-knot nematode (Test Example 1). To be noted: non-treated = 100. Also on record: key: visual root knot index, 0 to 100%. As to the method: 1 Liter of sand soil having paddy soil sterilized by steam and sand mixed in a volume ratio of 1:1 was put into a 1/1,000,000 ha pot, and a predetermined amount of a test compound was added and mixed. Immediately after addition of the compound, 500 mL of soil contaminated with southern root-knot nematode (Meloidogyne incognita) was put in each pot and sufficiently mixed, and then seedling of tomato (cultivar: yellow pear) were transplantated. On the 33rd to 35th day after transplantation, the root knot index (0 to 100%) formed by nematode was visually determined. The test was carried out by two replications.
Further, theoretical values determined by the Colby's formula are shown in brackets ( ) in Tables.

Assay [2] deals with larvae of turnip fly. The experiment in a line: Field test, damage to Daikon radish root by larvae of turnip fly (Test Example 4). To be noted: 36th day after sowing. On the procedure:
Granules of fosthiazate and granules of clothianidin were mixed in predetermined active ingredient amounts, and the mixture was spread on the surface of soil of a field and sufficiently mixed by a small rotary. Seeds of Daikon radish were sown, and on the 36th day after sowing, the degree of damage to the root by larvae of turnip fly was examined by degree, and the damage grade was determined in accordance with the following formula. Further, theoretical values determined by the Colby's formula are shown in brackets ( ) in Table 6. Further, the combination of granules of fosthiazate and granules of imidacloprid was tested as a Comparative Example.
Degree of damage (nil: 0, low: 1, middle: 2, high: 3, enormous: 4)
Damage grade={Σ(damage grade index×number of Daikon radish investigated at each degree of damage)/(total number investigated×4)}×100

Assay [3] concerns common cutworm. The experiment in a line: Control of common cutworm larvae on leaf of cabbage grown in treated soil (Test Example 3). To be noted: second-instar larvae, 4th day. From the text: (§1) Control value(%)=(1−(number of parasites in treated area)/(number of parasites in non-treated area))×100
Sand soil having sand, non-sterilized soil and sterilized soil mixed in a volume ratio of 1:1:1 was put into a 1/500,000 ha pot, and predetermined amounts of test compounds were sufficiently mixed. Seedlings of cabbage (cultivar: Okina) in 3-leaf stage were transplanted and grown in a greenhouse for 11 days. Then, the fourth leaf of the cabbage was cut, and 10 second-instar larvae of common cutworm were released. On the 4th day, the number of surviving insects was examined, and the control value was determined in the same manner as in Test Example 2. The test was carried out by three replications. Further, theoretical values determined by the Colby's formula are shown in brackets ( ) in Table 5. Further, the combination of fosthiazate and imidacloprid was tested as a Comparative Example.

Assay [4] concerns two-spotted spider mite. Put plainly: Control of two-spotted spider mite on eggplant seedlings in pots (Test Example 2). To be noted: 14th day after treatment. As to the method: 1 Liter of sand soil having paddy soil sterilized by steam and sand mixed in a volume ratio of 1:1 was put into a 1/1,000,000 ha pot, and a predetermined amount of a test compound was added and mixed. Seedlings of eggplant (cultivar: Senryo No. 2) in which 30 adults of two-spotted spider mite (greenish yellow) were parasitic were transplanted and grown in a greenhouse for 5 days, and a test compound was applied to each pot. On the 14th day after treatment, the number of two-spotted spider mite parasitic in each pot was examined. The test was carried out by three replications. The test results are shown in Table 4 by the control value (%). Further, theoretical values determined by the Colby's formula are shown in brackets ( ) in Table 4.
Further, the control value (%) was calculated in accordance with the following formula.
as §1

Where [5] appears, read: Table 1, single compound 5000 g a.i./ha, tomato, 33rd to 35th day.
Where [6] appears, read: Table 3, single compound 5000 g a.i./ha.
The mark [7] stands for this setting: single compound granules 500 g a.i/ha.
Where [8] appears, read: single compound granules 750 g a.i/ha.
Setting [9] is: single compound granules 1000 g a.i/ha.
[10] abbreviates: Table 2, single compound 500 g a.i./ha.

With `CN1COCN(Cc2cnc(Cl)s2)/C1=N\[N+](=O)[O-]` [thiamethoxam], in assay [1] (setting [5]), the Root knot index came to 95.7.

The molecule `O=C(NC(=O)c1c(F)cccc1F)Nc1cc(Cl)c(F)c(Cl)c1F` [Teflubenzuron, teflubenzuron] showed a Root knot index in assay [1] (setting [6]) of 100.

As to `O=[N+]([O-])NC1=NCCN1Cc1ccc(Cl)nc1` [Imidacloprid, imidacloprid], the Damage degree in assay [2] (setting [7]) worked out at 23.2; in assay [2] (setting [8]), 34.7; in assay [2] (setting [9]) it was 26.3. For the same molecule, the Control value in assay [3] (single compound 156 g a.i/ha) turned out to be 6.7%; in assay [3] (single compound 313 g a.i/ha), 13.3%.

`Cc1c(F)c(F)c(COC(=O)[C@@H]2[C@H](/C=C(\Cl)C(F)(F)F)C2(C)C)c(F)c1F` (racemic) [Tefluthrin, tefluthrin] came in with a Root knot index in assay [1] (setting [10]) of 100.

Consider `CCOP(=O)(SC(C)CC)N1CCSC1=O` (stereo not shown) [fosthiazate], for which the Control value in assay [4] (single compound 6000 g a.i/ha) was determined as 98%; in assay [3] (single compound 6000 g a.i/ha) it was 73.3%. The Damage degree in assay [2] (single compound granules 6000 g a.i/ha, Daikon radish field) was 33.7. The Root knot index in assay [1] (Table 1, single compound 750 g a.i./ha, soil mixing, tomato, 33rd to 35th day) worked out at 35.4; in assay [1] (Table 2, single compound 750 g a.i./ha), 22.0; in assay [1] (Table 2, single compound 1500 g a.i./ha), 5.0; in assay [1] (Table 3, single compound 750 g a.i./ha) it was 15.8.

The molecule `CCOc1ccc([Si](C)(C)CCCc2ccc(F)c(Oc3ccccc3)c2)cc1` [Silafluofen, silafluofen] showed a Root knot index in assay [1] (setting [10]) of 100.

`O=C(NC(=O)c1c(F)cccc1F)Nc1cc(Cl)c(Oc2ncc(C(F)(F)F)cc2Cl)c(Cl)c1` [Chlorfluazuron, chlorfluazuron]: in assay [1] (setting [6]), the Root knot index is 100.

On to `CN/C(=N/CC1CCOC1)N[N+](=O)[O-]` (stereo not shown) [dinotefuran], for which, in assay [1] (setting [5]), the Root knot index turned out to be 97.6.

Take `CN/C(=N\[N+](=O)[O-])NCc1cnc(Cl)s1` [clothianidin]: the Control value in assay [4] (single compound 400 g a.i/ha) is 35%; in assay [4] (single compound 800 g a.i/ha), 48%; in assay [4] (single compound 1500 g a.i/ha), 22%; in assay [3] (single compound 156 g a.i/ha), 3.3%; in assay [3] (single compound 313 g a.i/ha), 20.0%. In addition, the Damage degree stood at 20.0 in assay [2] (setting [7]), 25.3 in assay [2] (setting [8]) and 0 in assay [2] (setting [9]). Also, the Root knot index in assay [1] (setting [5]) is recorded as 99.3.

`O=C(NC(=O)c1c(F)cccc1F)Nc1ccc(Oc2ccc(C(F)(F)F)cc2Cl)cc1F` [Flufenoxuron, flufenoxuron]: in assay [1] (setting [6]), the Root knot index came out at 100.
